Reference: patent EP0011400A1, “An aminoglycosidic antibiotic salt” (priority 1978, dated 1980)
Structures can show the parent of a compound that is named as a salt.

Columns and labels:
Male Hartley guinea pigs [1] = assay: Example 8: toxicity of tobramycin and bekanamycin salts on intramuscular injection (deaths, pinna reflex); format: in vivo; settings: for Pinna Reflex Lost: * including dead cases; for Number died/ Number tested: guinea pigs, intramuscular
Experimental: The second group was injected with a solution of tobramycin sulfate in water for injection in an equal dose. […] After injection with the final dose, the pinna reflex of each subject guinea pig to a pure tone having a frequency of 15,000 Hz was determined. […] Both group were then subjected to determination of their pinna reflex to a 15,000^-Hz pure tone.

Male Hartley guinea pigs [2] = assay: Example 7: toxicity of dibekacin salts on intramuscular injection for 21 days (deaths, pinna reflex, BUN); format: in vivo; settings: for Number of guinea pigs which lost pinna reflex 10days / Number of guinea pigs which lost pinna reflex 14days / Number of guinea pigs which lost pinna reflex 17days / Number of guinea pigs which lost pinna reflex 21days: 180 mg (as a free base)/kg/day intramuscular, 20,000 Hz pure tone; for Number of guinea pigs which lost pinna reflex 21days: * including dead cases; for Number died/ Number tested: guinea pigs, intramuscular, 21 consecutive days; for Number died/ Number tested / BUN: 180 mg (as a free base)/kg/day; for BUN: sera, 24 hours after final dose; for Number of guinea pigs which lost pinna reflex 21days / BUN: 21 days
Experimental: The second group was injected with an equal dose of a solution of dibekacin sulfate in water for injection. […] During the intramuscu]ar injection, the pinna reflex of each subject guinea pig to a pure tone having a frequency of 20,000 Hz was determined. Twenty-four hours after the injection with the final dose, the level of BUN in sera was measured.

[3] = tested on: Pseudomonas aeruginosa E-2; assay: Example 10: survival of mice infected intraperitoneally; format: in vivo; settings: ICR-JCL mice, intramuscular; for Percentage Survival (%) Dosage 0.0625 mg: 0.0625 mg (as a free base)/mouse; for Percentage Survival (%) Dosage 0.0625 mg / Percentage Survival (%) Dosage 0.25 mg / Percentage Survival (%) Dosage 1 mg: one week after the injection; for Percentage Survival (%) Dosage 1 mg: 1 mg (as a free base)/mouse; for ED50: Pseudomonas aeruginosa, E2, im, 168 h, calculated by Ritchfield-Wilcoxon technique, the two values not significantly different
Experimental: The second group was injected with a solutio of dibekacin sulfate in sterile physiological saline solution in the above indicated doses. […] The percentage survival of each group was checked one week after the injection.

[4] = Solubility of the salt powder in water and organic solvents; format: physicochemical
Male Hartley guinea pigs [5] = assay: Example 9: toxicity of kanamycin A salts on intramuscular injection for 14 days (deaths, pinna reflex, BUN); format: in vivo; settings: 400 mg (as a free base)/kg/day, 14 consecutive days
Experimental: The second group was injected with a solution of kanamycin A sulfate in water for injection in an equal dose. The third group was injected with a solution of a mixture of kanamycin A sulfate and potassium salt of D-glucaro-1,5-lactam (in a molar ratio of […]) in water for injection in an eaual dose.

[6] = pH of an aqueous solution of the salt; format: physicochemical
Male Hartley guinea pigs [7] = assay: Example 6: toxicity of gentamicin salts on intramuscular injection for 14 days (deaths, pinna reflex, BUN, CRE); format: in vivo; settings: 100 mg (as a free base)/kg/day; for CRE: creatine in sera; for CRE / BUN: 24 hours after the pinna reflex determination; for Number died/ Number tested: 14 consecutive days; for BUN: sera
Experimental: The amount of the test compounds administered was calculated on the basis of the free base (i.e., free gentamicin). […] The second group was injected with an equal dose of a solution of gentamicin sulfate in water for injection. […] After injection with the final dose, each group was subjected to a pure tone having a frequency of 20,000 Hz to determine the pinna reflex of the subject guinea pigs. Twenty-four hours after the determination, the levels of blood urea nitrogen (BUN) and creatine (CRE) in sera were measured.

Male Hartley guinea pigs [8] = assay: Example 11: pinna reflex after intramuscular injection of gentamicin salts for 21 days; settings: 80 mg (as a free base)/kg/day, 20,000 Hz pure tone after final dose
Experimental: Male Hartley guinea pigs weighing 300 g on average were used as the test animals in three groups each consisting of 6 guinea pigs which were subjected to intramuscular injection of the following substances for 21 consecutive days. The first group was injected with a solution of the salt of gentamicin and D-glucaro-1,5-lactam in water for injection in a dose of 80 mg (as a free base)/kg/day. The second group was injected with a solution of gentamicin sulfate in water for injection in an equal dose. The third group was a control which was injected with distilled water.

[9] = 250 mg (as a free base)/kg/day, 14 days, 15,000 Hz pure tone
[10] = 250 mg (as a free base)/kg/day, 14 consecutive days
[11] = 120 mg (as a free base)/kg/day, 16 days, 15,000 Hz pure tone after final dose
[12] = guinea pigs, intramuscular, 14 days, 20,000 Hz pure tone after final dose

## NC[C@H]1O[C@H](O[C@H]2[C@H](O)[C@@H](O[C@H]3O[C@H](CO)[C@@H](O)[C@H](N)[C@H]3O)[C@H](N)C[C@@H]2N)[C@H](N)[C@@H](O)[C@@H]1O [Bcanamycin sulfate, bekanamycin sulfate]
Male Hartley guinea pigs [1]; [9]
  Pinna Reflex Dull: 1/4
  Pinna Reflex Lost: 3/4*
Male Hartley guinea pigs [1]; [10]
  Number died/ Number tested: 2/6

## NCC1CCC(N)C(OC2C(N)CC(N)C(OC3OC(CO)C(O)C(N)C3O)C2O)O1 (stereo not shown) [Dibekacin sulfate, dibekacin sulfate, reference compound]
Male Hartley guinea pigs [2]
  Number of guinea pigs which lost pinna reflex 10days: 0/6
  Number of guinea pigs which lost pinna reflex 14days: 3/6
  Number of guinea pigs which lost pinna reflex 17days: 3/6
  Number of guinea pigs which lost pinna reflex 21days: 5/6*
  Number died/ Number tested: 1/6
  BUN: 41.8 ± 26.9 mg/dL
[3]
  Percentage Survival (%) Dosage 0.0625 mg: 0%
  Percentage Survival (%) Dosage 0.25 mg: 30%
  Percentage Survival (%) Dosage 1 mg: 100%
  ED50: 15.7 mg/kg

## NC[C@H]1O[C@H](O[C@H]2[C@H](O)[C@@H](O[C@H]3O[C@H](CO)[C@@H](O)[C@H](N)[C@H]3O)[C@H](N)C[C@@H]2N)[C@H](N)[C@@H](O)[C@@H]1O [Glucarolactam salt of bekanamycin, Salt of bekanamycin and D-glucaro-1,5-lactam]
[4]
  solubility in ethanol, acetone, ethyl acetate and chloroform: very slightly soluble
  solubility in water: freely soluble
Male Hartley guinea pigs [1]; [9]
  Pinna Reflex Dull: 3/6
  Pinna Reflex Lost: 3/6
Male Hartley guinea pigs [1]; [10]
  Number died/ Number tested: 0/6

## NC[C@@H]1CC[C@@H](N)[C@@H](O[C@H]2[C@H](O)[C@@H](O[C@H]3O[C@H](CO)[C@@H](O)[C@H](N)[C@H]3O)[C@H](N)C[C@@H]2N)O1 [Glucarolactam salt of dibekacin, Salt of dibekacin and D-glucaro-1,5-lactam]
[4]
  solubility in ethanol, acetone, ethyl acetate and chloroform: very slightly soluble
  solubility in methanol: sparingly soluble
  solubility in water: freely soluble
Male Hartley guinea pigs [2]
  Number of guinea pigs which lost pinna reflex 10days: 0/6
  Number of guinea pigs which lost pinna reflex 14days: 0/6
  Number of guinea pigs which lost pinna reflex 17days: 0/6
  Number of guinea pigs which lost pinna reflex 21days: 3/6
  Number died/ Number tested: 0/6
  BUN: 35.7 ± 13.3 mg/dL
[3]
  Percentage Survival (%) Dosage 0.0625 mg: 0%
  Percentage Survival (%) Dosage 0.25 mg: 20%
  Percentage Survival (%) Dosage 1 mg: 100%
  ED50: 19.1 mg/kg

## NC[C@H]1O[C@H](O[C@H]2[C@H](O)[C@@H](O[C@H]3O[C@H](CO)[C@@H](O)[C@H](N)[C@H]3O)[C@H](N)C[C@@H]2N)[C@H](O)[C@@H](O)[C@@H]1O [Glucarolactam salt of kanamycin, Salt of kanamycin A and D-glucaro-1,5-lactam]
[4]
  solubility in ethanol, acetone, ethyl acetate and chloroform: very slightly soluble
  solubility in water: freely soluble
Male Hartley guinea pigs [5]
  Number died/ Number tested: 0/6

## NC[C@H]1O[C@H](O[C@H]2[C@H](O)[C@@H](O[C@H]3O[C@H](CO)[C@@H](O)[C@H](N)[C@H]3O)[C@H](N)C[C@@H]2N)[C@H](O)[C@@H](O)[C@@H]1O [Kanamycin sulfate, kanamycin A sulfate, reference compound]
Male Hartley guinea pigs [5]
  Number died/ Number tested: 0/6

## NCC1OC(OC2C(N)CC(N)C(OC3OC(CO)C(O)C(N)C3O)C2O)C(N)CC1O (stereo not shown) [Tobramycin sulfate, tobramycin sulfate]
Male Hartley guinea pigs [1]; [11]
  Pinna Reflex Dull: 2/9
  Pinna Reflex Normal: 7/9
Male Hartley guinea pigs [1]; 120 mg (as a free base)/kg/day, 16 consecutive days
  Number died/ Number tested: 0/9

## Salt of gentamicin and D-glucaro-1,5-lactam [Glucarolactam salt of gentamicin]
[4]
  solubility in ethanol, acetone, ethyl acetate and chloroform: very slightly soluble
  solubility in methanol: sparingly soluble
  solubility in water: freely soluble
[6]
  pH of an aqueous solution of the salt: 6.7
Male Hartley guinea pigs [7]; 14 days
  CRE: 1.20±0.51
  BUN: 64.6 ± 43.97 mg/dL
Male Hartley guinea pigs [7]; guinea pigs, intramuscular
  Number died/ Number tested: 2/9
Male Hartley guinea pigs [7]; [12]
  Pinna Reflex Lost: 1/7
  Pinna Reflex Normal: 6/7
Male Hartley guinea pigs [8]
  Pinna Reflex Dull: 2/6
  Pinna Reflex Normal: 3/6
Male Hartley guinea pigs [8]; * including one guinea pig dead on the 21th day
  Pinna Reflex Lost: 1/6

## gentamicin sulfate [reference compound]
Male Hartley guinea pigs [7]; 14 days
  CRE: 1.80±0.57
  BUN: 92.3 ± 50.42 mg/dL
Male Hartley guinea pigs [7]; guinea pigs, intramuscular
  Number died/ Number tested: 7/9
Male Hartley guinea pigs [7]; [12]
  Pinna Reflex Dull: 2/5
  Pinna Reflex Lost: 3/5
